Experimental data published in patent US20140045823A1 (Neurocrine Biosciences, Inc., priority 2012, published 2014).
pEC50: −log10 of the molar value.

biological target: T1, human GPR119 (Homo sapiens, UniProt Q8TDV5); test: AlphaScreen cAMP assay in MIN6 cells stably transfected with human GPR119; format: cell-based; conditions: Min-6/hGPR119 cells, 45 min at room temperature
T1 construct: expression vector for human GPR119 cDNA (Acc. No. NP_848566); expressed in transfected cells; Min-6/hGPR119
T1 sequence (Q8TDV5 1-335): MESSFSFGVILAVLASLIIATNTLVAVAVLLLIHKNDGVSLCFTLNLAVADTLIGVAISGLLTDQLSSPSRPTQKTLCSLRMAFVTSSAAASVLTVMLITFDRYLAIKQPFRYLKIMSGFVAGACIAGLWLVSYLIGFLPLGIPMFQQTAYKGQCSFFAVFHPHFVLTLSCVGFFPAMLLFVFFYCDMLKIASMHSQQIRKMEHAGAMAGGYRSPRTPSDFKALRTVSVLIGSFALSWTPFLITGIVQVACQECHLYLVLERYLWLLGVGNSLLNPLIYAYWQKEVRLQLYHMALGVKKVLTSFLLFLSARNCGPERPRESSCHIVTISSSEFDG
Experimental: The compounds of formula I according to the invention modulate the activity of the G-protein-coupled receptor GPR119. The effect of the compounds on the activation of GPR119 and on the stimulation of intracellular cAMP concentration is determined using the AlphaScreen cAMP Assay Kit (Cat. No. #6760625R) made by PerkinElmer.
MIN6 cells [Miyazaki J et al. Endocrinology. 1990 July; 127(1):126-32] are stably transfected with an expression vector for human GPR119 cDNA (Acc. No. NP_848566). Min-6/hGPR119 cells are cultured in DMEM, 10% FBS, 50 μM β-mercaptoethanol, 0.3 mg/mL Geniticin, 2 mM GlutaMAX at 37° C. 5% CO2. For the assay, the cells are seeded in Optiplates (white, 384-well, 160 W—barcoded, TC, sterile with lid, Cat. No. #6007688 (Perkin Elmer); 10000 cells/well; 50 μl). The plates covered with lids are then incubated for 24 hours at 37° C./5% CO2. After the medium is aspirated from the wells completely, 10 μl of the test compound are added, the compounds are diluted using stimulating buffer (140 mM NaCl, 3.6 mM KCl, 0.5 mM NaH2PO4, 0.5 mM MgSO4, 1.5 mM CaCl2, 10 mM Hepes, 5 mM NaHCO3; pH 7.4. 0.5 mM IBMX and 0.1% BSA, the final DMSO concentration is 1%). After 45 minutes incubation at room temperature (approx. 20° C.), the cAMP concentrations are determined using the AlphaScreen cAMP Assay Kit (Cat. No. #6760625R from PerkinElmer).

Compound	pEC50
CN(Cc1cccnc1)C(=O)c1ccc(-c2ncc(C(=O)N(C3CC3)C3CCN(C(=O)OC(C)(C)C)CC3)cn2)c(F)c1 [Example 166, 4-(Cyclopropyl-{2-[2-fluoro-4-(methyl-pyridin-3-ylmethyl-carbamoyl)-phenyl]-pyrimidine-5-carbonyl}-amino)-piperidine-1-carboxylic acid tert-butyl ester]	6.44
CC(=O)NCc1ccc(-c2ncc(C(=O)N(C3CC3)C3CCN(C(=O)OC(C)(C)C)CC3)cn2)cc1 [Example 87, 4-({2-[4-(Acetylamino-methyl)-phenyl]-pyrimidine-5-carbonyl}-cyclopropyl-amino)-piperidine-1-carboxylic acid tert-buyl ester]	6.35
CC(O)c1cccc(NC(=O)Cc2ccc(-c3ncc(C(=O)N(C4CC4)C4CCN(C(=O)OC(C)(C)C)CC4)cn3)cc2)c1 (centres unmarked) [Example 210, 4-{Cyclopropyl-[2-(4-{[3-(1-hydroxy-ethyl)-phenylcarbamoyl]-methyl}-phenyl)-pyrimidine-5-carbonyl]-amino}-piperidine-1-carboxylic acid tert-butyl ester]	6.23
CC(C)(C)OC(=O)N1CCC(N(C(=O)c2cnc(-c3ccc(C(=O)Nc4ccnnc4)cc3)nc2)C2CC2)CC1 [Example 231, 4-(Cyclopropyl-{2-[4-(pyridazin-4-ylcarbamoyl)-phenyl]-pyrimidine-5-carbonyl}-amino)-piperidine-1-carboxylic acid tert-butyl ester]	6.38
CC(C)(CO)CNC(=O)c1ccc(-c2ncc(C(=O)N(C3CC3)C3CCN(C(=O)OC(C)(C)C)CC3)cn2)c(F)c1 [Example 101, 4-(Cyclopropyl-{2-[2-fluoro-4-(3-hydroxy-2,2-dimethyl-propylcarbamoyl)-phenyl]-pyrimidine-5-carbonyl}-amino)-piperidine-1-carboxylic acid tert-butyl ester]	6.36
CC(C)(C)OC(=O)N1CCC(N(C(=O)c2cnc(-n3cc(CCO)cn3)nc2)C2CC2)CC1 [Example 58, 4-(Cyclopropyl-{2-[4-(2-hydroxy-ethyl)-pyrazol-1-yl]-pyrimidine-5-carbonyl}-amino)-piperidine-1-carboxylic acid tert-butyl ester]	5.66
COC[C@H]1CCCN1C(=O)c1ccc(-c2ncc(C(=O)N(C3CC3)C3CCN(C(=O)OC(C)(C)C)CC3)cn2)c(F)c1 [Example 134, 4-(Cyclopropyl-{2-[2-fluoro-4-(2-methoxymethyl-pyrrolidine-1-carbonyl)-phenyl]-pyrimidine-5-carbonyl}-amino)-piperidine-1-carboxylic acid tert-butyl ester]	6.25
COC[C@H]1CCCN1C(=O)c1ccc(-c2ncc(C(=O)N(C3CC3)C3CCN(C(=O)OC(C)(C)C)CC3)cn2)cc1F [Example 114, 4-(Cyclopropyl-{2-[3-fluoro-4-(2-methoxymethyl-pyrrolidine-1-carbonyl)-phenyl]-pyrimidine-5-carbonyl}-amino)-piperidine-1-carboxylic acid tert-butyl ester]	6.42
CC(C)(C)OC(=O)N1CCC(N(C(=O)c2cnc(-c3ccc(CC(=O)N4CCCOCC4)cc3)nc2)C2CC2)CC1 [Example 192, 4-(Cyclopropyl-{2-[4-(2-[1,4]oxazepan-4-yl-2-oxo-ethyl)-phenyl]-pyrimidine-5-carbonyl}-amino)-piperidine-1-carboxylic acid tert-butyl ester]	6.38
CN(CC#N)C(=O)c1ccc(-c2ncc(C(=O)N(C3CC3)C3CCN(C(=O)OC(C)(C)C)CC3)cn2)c(F)c1 [Example 140, 4-({2-[4-(Cyanomethyl-methyl-carbamoyl)-2-fluoro-phenyl]-pyrimidine-5-carbonyl}-cyclopropyl-amino)-piperidine-1-carboxylic acid tert-butyl ester]	6.36

More lines, now with the values ahead:

pEC50	Compound
6.46	CN(CCOCC1CC1)C(=O)c1ccc(-c2ncc(C(=O)N(C3CC3)C3CCN(C(=O)OC(C)(C)C)CC3)cn2)c(F)c1 [Example 138, 4-[Cyclopropyl-(2-{4-[(2-cyclopropylmethoxy-ethyl)-methyl-carbamoyl]-2-fluoro-phenyl}-pyrimidine-5-carbonyl)-amino]-piperidine-1-carboxyli acid tert-butyl ester]
6.56	CC(C)(C)OC(=O)N1CCC(N(C(=O)c2cnc(-c3ccc(C(=O)N4CCC[C@@H]4C#N)c(F)c3)nc2)C2CC2)CC1 [Example 161, 4-({2-[4-(2-Cyano-pyrrolidine-1-carbonyl)-3-fluoro-phenyl]-pyrimidine-5-carbonyl}-cyclopropyl-amino)-piperidine-1-carboxylic acid tert-butyl ester]
6.94	COCc1cccc(NC(=O)c2ccc(-c3ncc(C(=O)N(C4CC4)C4CCN(C(=O)OC(C)(C)C)CC4)cn3)cc2F)c1 [Example 156, 4-(Cyclopropyl-{2-[3-fluoro-4-(3-methoxymethyl-phenylcarbamoyl)-phenyl]-pyrimidine-5-carbonyl}-amino)-piperidine-1-carboxylic acid tert-butyl ester]
6.77	CN(Cc1cccnc1)C(=O)c1ccc(-c2ncc(C(=O)N(C3CC3)C3CCN(C(=O)OC(C)(C)C)CC3)cn2)cc1 [Example 197, 4-(Cyclopropyl-{2-[4-(methyl-pyridin-3-ylmethyl-carbamoyl)-phenyl]-pyrimidine-5-carbonyl}-amino)-piperidine-1-carboxylic acid tert-butyl ester]
7.12	CC(C)OC(=O)N1CCC(N(C(=O)c2cnc(-c3ccc(CC#N)cc3)nc2)C2CC2)CC1 [Example 60, 4-{[2-(4-Cyanomethyl-phenyl)-pyrimidine-5-carbonyl]-cyclopropyl-amino}-piperidine-1-carboxylic acid isopropyl ester]
6.52	COC[C@@H]1CCCN1C(=O)c1ccc(-c2ncc(C(=O)N(C3CC3)C3CCN(C(=O)OC(C)(C)C)CC3)cn2)cc1 [Example 204, 4-(Cyclopropyl-{2-[4-(2-methoxymethyl-pyrrolidine-1-carbonyl)-phenyl]-pyrimidine-5-carbonyl}-amino)-piperidine-1-carboxylic acid tert-butyl ester]
6.64	COCCN(C)C(=O)c1ccc(-c2ncc(C(=O)N(C3CC3)C3CCN(C(=O)OC(C)(C)C)CC3)cn2)cc1F [Example 160, 4-[Cyclopropyl-(2-{3-fluoro-4-[(2-methoxy-ethyl)-methyl-carbamoyl]-phenyl}-pyrimidine-5-carbonyl)-amino]-piperidine-1-carboxylic acid tert-butyl ester]
6.45	CC(C)(C)OC(=O)N1CCC(N(C(=O)c2ncc(-c3ccc(S(C)(=O)=O)cc3)o2)C2CC2)CC1 [Example 36, 4-{Cyclopropyl-[5-(4-methanesulfonyl-phenyl)-oxazole-2-carbonyl]-amino}-piperidine-1-carboxylic acid tert-butyl ester]
6.50	CN(Cc1cccnc1)C(=O)Cc1ccc(-c2ncc(C(=O)N(C3CC3)C3CCN(C(=O)OC(C)(C)C)CC3)cn2)cc1 [Example 236, 4-[Cyclopropyl-(2-{4-[(methyl-pyridin-3-ylmethyl-carbamoyl)-methyl]-phenyl}-pyrimdine-5-carbonyl)-amino]-piperidine-1-carboxylic acid tert-butyl ester]
7.21	CC(C)(C)OC(=O)N1CCC(N(C(=O)c2ccc(-c3cnco3)nc2)C2CC2)CC1 [Example 5, 4-[Cyclopropyl-(6-oxazol-5-yl-pyridine-3-carbonyl)-amino]-piperidine-1-carboxylic acid tert-butyl ester]
6.77	Cc1cnc(CNC(=O)c2ccc(-c3ncc(C(=O)N(C4CC4)C4CCN(C(=O)OC(C)(C)C)CC4)cn3)cc2)s1 [Example 246, 4-[Cyclopropyl-(2-{4-[(5-methyl-thiazol-2-ylmethyl)-carbamoyl]-phenyl}-pyrimidine-5-carbonyl)-amino]-piperidine-1-carboxylic acid tert-butyl ester]
7.12	CC(C)(C)OC(=O)N1CCC(N(C(=O)c2cnc(-c3ccc(S(C)(=O)=O)cc3)nc2)C2CC2)CC1 [Example 80, 4-{Cyclopropyl-[2-(4-methanesulfonyl-phenyl)-pyrimidine-5-carbonyl]-amino}-piperidine-1-carboxylic acid tert-butyl ester]
7.15	Cc1cn(-c2ncc(C(=O)N(C3CC3)C3CCN(C(=O)OC(C)(C)C)CC3)cn2)c(C)n1 [Example 98, 4-{Cyclopropyl-[2-(2,4-dimethyl-imidazol-1-yl)-pyrimidine-5-carbonyl]-amino}-piperidine-1-carboxylic acid tert-butyl ester]
